Measured values as given in ChEMBL document CHEMBL4130638, “Discovery of the Polyamine Conjugate with Benzo[ cd]indol-2(1 H)-one as a Lysosome-Targeted Antimetastatic Agent” (J Med Chem, 2018).
Activity calls are given as the source filed them. The rule behind the calls is not given here.

Legend:
CT26 [1] = experiment: Antitumor activity against mouse CT26 cells implanted in Balb/c mouse assessed as solid tumor growth inhibition at 1 mg/kg, iv for 14 consecutive days measured on day 15 relative to control; assay type: functional; settings: 360 h, read-out: TGI
HCT-116 [2] = experiment: Induction of autophagy in human HCT116 cells at 1 to 20 uM after 24 hrs by Lyso staining based flow cytometry; assay type: functional, cell-based
[3] = target: Serine/threonine-protein kinase mTOR (Homo sapiens) (UniProt P42345); experiment: Inhibition of mTOR phosphorylation in human HCT116 cells after 24 hrs by Western blot method; assay type: cell-based
CT26 [4] = experiment: Induction of apoptosis in mouse CT26 cells assessed as late apoptotic cells at 10 uM after 24 hrs in presence of autophagy inhibitor 3-MA by annexin V-FITC/propidium iodide staining based flow cytometry (reference value: 2.26%); assay type: functional
HCT-116 [5] = experiment: Downregulation of p62 protein expression in human HCT116 cells after 24 hrs by Western blot method; assay type: functional, cell-based
HCT-116 [6] = experiment: Upregulation of LAMP2 protein expression in human HCT116 cells at 10 uM after 24 hrs by Western blot method; assay type: functional, cell-based

Q: Which inhibition in vivo at 1 mg/kg (CT26 [1]) does the source give for `Cl.Cl.Cl.NCCCCNCCCCNCCCCN1C(=O)c2cccc3cccc1c23` here?
A: 46.9%

Q: And the Activity (HCT-116 [2])?
A: Active

Q: And the inhibition [3]?
A: Dose-dependent effect

Q: What about the Activity (CT26 [4]) of the same compound?
A: 6.59%

Q: And the Activity (HCT-116 [5])?
A: Dose-dependent effect

Q: What about the Activity (HCT-116 [6]) of the same compound?
A: Active
